Assay results published in publication PMC5097156, “Potent and selective chemical probe of hypoxic signalling downstream of HIF-α hydroxylation via VHL inhibition” (Nature Communications, 2016).

Key:
Test in all cases: biochemical
Set-up in all cases: Dundee MRC-PPU Express kinase screen, remaining kinase activity
Conditions in all cases: read-out: Mean % of remaining kinase activity (±sd)
CAMK1 = CAMK1 (Homo sapiens, UniProt Q14012)
PKD1 = target: T1, PKD1 (Homo sapiens, UniProt Q15139)
T1 construct: gene PRKD1

TBK1 = TBK1 (Homo sapiens, UniProt Q9UHD2)
CK2 = target: T2, CK2 (Homo sapiens, UniProt P68400)
T2 construct: gene CSNK2A1

NEK6 = NEK6 (Homo sapiens, UniProt Q9HC98)
SmMLCK = target: T3, SmMLCK (Homo sapiens, UniProt Q15746)
T3 construct: gene MYLK; smooth muscle

JAK3 = JAK3 (Homo sapiens, UniProt P52333)
SYK = SYK (Homo sapiens, UniProt P43405)
TAK1 = target: T4, TAK1 (Homo sapiens, UniProt O43318)
T4 construct: gene MAP3K7

CK1δ = target: T5, CK1δ (Homo sapiens, UniProt P48730)
T5 construct: gene CSNK1D

S6K1 = target: T6, S6K1 (Homo sapiens, UniProt P23443)
T6 construct: gene RPS6KB1

JNK1 = target: T7, JNK1 (Homo sapiens, UniProt P45983)
T7 construct: gene MAPK8

IGF-1R = target: T8, IGF-1R (Homo sapiens, UniProt P08069)
T8 construct: gene IGF1R

MARK3 = MARK3 (Homo sapiens, UniProt P27448)
Sequence of MARK3 (P27448 whole entry): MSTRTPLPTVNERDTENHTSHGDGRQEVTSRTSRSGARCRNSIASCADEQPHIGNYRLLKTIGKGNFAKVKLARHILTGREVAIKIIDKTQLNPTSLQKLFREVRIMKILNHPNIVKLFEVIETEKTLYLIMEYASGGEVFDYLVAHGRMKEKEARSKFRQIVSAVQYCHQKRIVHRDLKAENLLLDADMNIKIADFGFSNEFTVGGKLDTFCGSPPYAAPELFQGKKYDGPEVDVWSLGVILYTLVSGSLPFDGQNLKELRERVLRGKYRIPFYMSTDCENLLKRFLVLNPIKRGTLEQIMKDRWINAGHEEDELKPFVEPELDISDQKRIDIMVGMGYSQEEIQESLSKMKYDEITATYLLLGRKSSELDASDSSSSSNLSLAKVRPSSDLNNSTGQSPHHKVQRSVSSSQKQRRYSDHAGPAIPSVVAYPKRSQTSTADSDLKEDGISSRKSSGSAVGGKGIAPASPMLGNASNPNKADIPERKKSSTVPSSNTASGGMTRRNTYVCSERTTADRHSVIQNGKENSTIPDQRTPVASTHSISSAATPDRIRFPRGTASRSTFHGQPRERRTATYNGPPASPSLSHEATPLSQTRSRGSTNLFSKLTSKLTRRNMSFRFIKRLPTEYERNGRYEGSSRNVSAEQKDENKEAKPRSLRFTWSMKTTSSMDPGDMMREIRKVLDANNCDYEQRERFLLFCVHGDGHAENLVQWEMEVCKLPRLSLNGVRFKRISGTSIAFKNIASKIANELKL

Sequence of TBK1 (Q9UHD2 whole entry): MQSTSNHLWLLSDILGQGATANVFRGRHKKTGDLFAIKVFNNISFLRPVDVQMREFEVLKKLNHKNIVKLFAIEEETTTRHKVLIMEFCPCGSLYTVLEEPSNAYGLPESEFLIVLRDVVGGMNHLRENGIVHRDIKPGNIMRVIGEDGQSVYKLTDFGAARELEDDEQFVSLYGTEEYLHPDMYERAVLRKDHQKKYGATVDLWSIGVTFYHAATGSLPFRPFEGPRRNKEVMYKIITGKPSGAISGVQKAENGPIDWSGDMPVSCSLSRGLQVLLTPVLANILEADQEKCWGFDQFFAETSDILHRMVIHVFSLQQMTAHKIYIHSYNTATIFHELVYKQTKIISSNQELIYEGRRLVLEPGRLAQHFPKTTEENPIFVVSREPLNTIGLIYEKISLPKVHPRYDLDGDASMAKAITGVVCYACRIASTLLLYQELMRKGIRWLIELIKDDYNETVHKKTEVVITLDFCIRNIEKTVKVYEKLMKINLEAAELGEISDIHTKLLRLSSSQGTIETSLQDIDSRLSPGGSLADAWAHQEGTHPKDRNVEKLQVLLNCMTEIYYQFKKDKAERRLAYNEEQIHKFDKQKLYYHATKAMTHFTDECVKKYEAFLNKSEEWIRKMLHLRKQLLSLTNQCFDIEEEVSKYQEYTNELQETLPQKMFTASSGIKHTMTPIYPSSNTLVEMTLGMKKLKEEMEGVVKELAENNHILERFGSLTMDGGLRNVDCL
Sequence of NEK6 (Q9HC98 whole entry): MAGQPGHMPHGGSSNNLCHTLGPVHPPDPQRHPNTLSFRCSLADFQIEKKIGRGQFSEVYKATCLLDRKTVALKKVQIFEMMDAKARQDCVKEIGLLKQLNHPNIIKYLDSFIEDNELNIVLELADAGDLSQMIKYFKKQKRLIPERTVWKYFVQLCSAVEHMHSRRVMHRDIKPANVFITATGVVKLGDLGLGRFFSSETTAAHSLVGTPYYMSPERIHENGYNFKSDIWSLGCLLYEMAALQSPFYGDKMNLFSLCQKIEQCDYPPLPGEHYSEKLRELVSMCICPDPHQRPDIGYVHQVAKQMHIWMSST
T5 sequence (P48730 whole entry): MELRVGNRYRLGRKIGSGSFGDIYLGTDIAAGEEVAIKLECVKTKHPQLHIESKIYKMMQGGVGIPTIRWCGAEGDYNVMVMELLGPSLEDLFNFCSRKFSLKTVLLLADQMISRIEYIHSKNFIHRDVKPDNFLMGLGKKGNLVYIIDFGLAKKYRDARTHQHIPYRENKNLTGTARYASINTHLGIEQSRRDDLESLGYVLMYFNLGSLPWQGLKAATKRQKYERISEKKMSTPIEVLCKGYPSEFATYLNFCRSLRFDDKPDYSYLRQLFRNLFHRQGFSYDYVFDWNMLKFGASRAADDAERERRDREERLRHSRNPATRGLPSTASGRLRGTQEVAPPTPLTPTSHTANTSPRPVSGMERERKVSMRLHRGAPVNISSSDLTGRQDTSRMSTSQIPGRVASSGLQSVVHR
T7 sequence (P45983 whole entry): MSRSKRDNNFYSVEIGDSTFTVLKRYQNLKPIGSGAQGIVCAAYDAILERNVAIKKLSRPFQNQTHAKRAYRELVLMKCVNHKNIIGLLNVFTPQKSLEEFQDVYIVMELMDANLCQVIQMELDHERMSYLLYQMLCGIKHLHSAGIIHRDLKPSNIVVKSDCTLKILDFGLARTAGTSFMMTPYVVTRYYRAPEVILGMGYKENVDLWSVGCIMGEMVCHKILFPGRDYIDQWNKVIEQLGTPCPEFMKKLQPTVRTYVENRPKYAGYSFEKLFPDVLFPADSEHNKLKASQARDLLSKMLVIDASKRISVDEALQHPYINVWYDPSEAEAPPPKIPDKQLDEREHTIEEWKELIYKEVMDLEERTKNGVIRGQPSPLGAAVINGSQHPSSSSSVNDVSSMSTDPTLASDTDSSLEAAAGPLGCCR
T3 sequence (Q15746 whole entry): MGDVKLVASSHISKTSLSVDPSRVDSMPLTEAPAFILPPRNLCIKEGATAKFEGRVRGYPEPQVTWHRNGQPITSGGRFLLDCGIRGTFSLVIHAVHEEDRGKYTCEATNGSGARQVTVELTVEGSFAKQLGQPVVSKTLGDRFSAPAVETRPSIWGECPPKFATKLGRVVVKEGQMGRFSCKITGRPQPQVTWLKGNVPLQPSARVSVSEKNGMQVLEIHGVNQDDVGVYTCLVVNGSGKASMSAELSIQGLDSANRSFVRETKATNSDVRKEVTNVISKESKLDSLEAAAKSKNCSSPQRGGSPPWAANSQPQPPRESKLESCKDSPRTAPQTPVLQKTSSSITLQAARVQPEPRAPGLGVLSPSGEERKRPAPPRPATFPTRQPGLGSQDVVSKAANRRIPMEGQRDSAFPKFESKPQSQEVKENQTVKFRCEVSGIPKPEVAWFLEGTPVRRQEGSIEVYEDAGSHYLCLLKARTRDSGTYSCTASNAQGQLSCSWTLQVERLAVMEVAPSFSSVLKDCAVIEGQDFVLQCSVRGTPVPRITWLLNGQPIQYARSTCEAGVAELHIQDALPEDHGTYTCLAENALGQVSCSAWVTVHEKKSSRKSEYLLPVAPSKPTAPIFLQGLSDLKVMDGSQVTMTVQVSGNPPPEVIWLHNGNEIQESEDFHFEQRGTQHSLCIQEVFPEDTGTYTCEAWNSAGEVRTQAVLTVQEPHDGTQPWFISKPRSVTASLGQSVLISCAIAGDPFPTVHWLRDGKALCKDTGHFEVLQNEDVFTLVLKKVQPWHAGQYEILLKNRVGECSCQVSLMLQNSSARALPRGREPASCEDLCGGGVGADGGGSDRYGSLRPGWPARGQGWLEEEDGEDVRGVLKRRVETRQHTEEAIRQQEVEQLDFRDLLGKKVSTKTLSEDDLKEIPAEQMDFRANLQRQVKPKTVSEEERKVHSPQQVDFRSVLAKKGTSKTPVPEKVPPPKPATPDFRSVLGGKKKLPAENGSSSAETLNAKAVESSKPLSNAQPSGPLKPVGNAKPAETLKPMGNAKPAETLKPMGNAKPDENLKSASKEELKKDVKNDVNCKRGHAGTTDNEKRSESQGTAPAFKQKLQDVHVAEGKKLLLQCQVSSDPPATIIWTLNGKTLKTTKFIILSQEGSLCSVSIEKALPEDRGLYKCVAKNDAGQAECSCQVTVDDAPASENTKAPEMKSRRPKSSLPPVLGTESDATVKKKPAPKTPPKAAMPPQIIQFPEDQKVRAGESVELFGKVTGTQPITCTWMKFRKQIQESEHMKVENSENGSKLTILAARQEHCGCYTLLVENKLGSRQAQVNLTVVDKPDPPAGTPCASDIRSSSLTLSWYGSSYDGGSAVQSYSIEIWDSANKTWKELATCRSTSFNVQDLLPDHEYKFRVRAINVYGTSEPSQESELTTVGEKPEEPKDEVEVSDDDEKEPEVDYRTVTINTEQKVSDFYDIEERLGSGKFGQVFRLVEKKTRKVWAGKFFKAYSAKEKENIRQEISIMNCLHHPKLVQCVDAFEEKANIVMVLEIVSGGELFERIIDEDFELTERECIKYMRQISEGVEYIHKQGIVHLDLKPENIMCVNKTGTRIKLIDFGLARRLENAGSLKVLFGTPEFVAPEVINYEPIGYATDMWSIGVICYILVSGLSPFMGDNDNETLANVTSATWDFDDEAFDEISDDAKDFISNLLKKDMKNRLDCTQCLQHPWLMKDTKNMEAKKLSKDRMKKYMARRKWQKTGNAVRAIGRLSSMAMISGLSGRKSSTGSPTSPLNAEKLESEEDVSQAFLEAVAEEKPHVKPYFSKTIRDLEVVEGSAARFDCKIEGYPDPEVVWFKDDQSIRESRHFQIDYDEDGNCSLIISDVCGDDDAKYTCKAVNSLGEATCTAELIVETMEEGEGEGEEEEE
T6 sequence (P23443 whole entry): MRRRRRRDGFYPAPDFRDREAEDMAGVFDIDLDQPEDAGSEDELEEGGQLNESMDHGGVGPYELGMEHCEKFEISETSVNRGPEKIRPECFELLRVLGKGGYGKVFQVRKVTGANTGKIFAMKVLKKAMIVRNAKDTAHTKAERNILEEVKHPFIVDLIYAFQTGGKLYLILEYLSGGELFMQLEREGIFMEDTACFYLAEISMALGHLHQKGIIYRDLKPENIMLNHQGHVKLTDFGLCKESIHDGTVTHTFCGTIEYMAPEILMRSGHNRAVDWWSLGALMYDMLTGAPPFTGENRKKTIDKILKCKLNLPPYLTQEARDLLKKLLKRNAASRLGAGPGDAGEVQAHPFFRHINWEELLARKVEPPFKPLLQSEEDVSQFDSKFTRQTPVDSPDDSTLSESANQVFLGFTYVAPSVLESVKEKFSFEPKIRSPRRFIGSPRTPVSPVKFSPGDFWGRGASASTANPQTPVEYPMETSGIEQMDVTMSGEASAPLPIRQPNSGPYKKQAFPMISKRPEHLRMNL

## Cc1ncsc1-c1ccc(CNC(=O)[C@@H]2C[C@@H](O)CN2C(=O)[C@@H](NC(=O)C2(C#N)CC2)C(C)(C)C)cc1 [VH298]
CAMK1
  remaining activity at 50 µM: 81%
PKD1
  remaining activity at 50 µM: 108%
TBK1
  remaining activity at 50 µM: 110%
CK2
  remaining activity at 50 µM: 116%
NEK6
  remaining activity at 50 µM: 106%
SmMLCK
  remaining activity at 50 µM: 105%
JAK3
  remaining activity at 50 µM: 99%
SYK
  remaining activity at 50 µM: 103%
TAK1
  remaining activity at 50 µM: 111%
CK1δ
  remaining activity at 50 µM: 99%
S6K1
  remaining activity at 50 µM: 87%
JNK1
  remaining activity at 50 µM: 119%
IGF-1R
  remaining activity at 50 µM: 110%
MARK3
  remaining activity at 50 µM: 94%
